Experimental data reported in publication PMC8896310 (Cell, 2022).

How the values were obtained:
BVU_0767 = target: T1, BVU_0767 (Phocaeicola vulgatus, UniProt A6KYF7); assay: DTNB thioesterase assay, […] nm; assay type: biochemical; settings: 100 uM acyl-CoA, 25 nM enzyme, 60 mM potassium phosphate pH 7.4, 37 C
T1 sequence (A6KYF7 1-137): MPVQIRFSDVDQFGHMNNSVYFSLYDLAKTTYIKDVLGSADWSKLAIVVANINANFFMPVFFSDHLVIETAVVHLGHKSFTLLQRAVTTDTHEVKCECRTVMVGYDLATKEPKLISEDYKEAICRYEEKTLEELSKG

BT_3942 = target: T2, BT_3942 (Bacteroides thetaiotaomicron, UniProt Q8A0S9); assay: DTNB thioesterase assay, […] nm; assay type: biochemical; settings: 100 uM acyl-CoA, 25 nM enzyme, 60 mM potassium phosphate pH 7.4, 37 C
T2 sequence (Q8A0S9 1-145): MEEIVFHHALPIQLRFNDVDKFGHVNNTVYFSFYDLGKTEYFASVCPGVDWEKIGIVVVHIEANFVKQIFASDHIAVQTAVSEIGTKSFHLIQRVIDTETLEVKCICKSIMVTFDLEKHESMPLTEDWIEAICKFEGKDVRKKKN

Compound	DTNB thioesterase assay, 412 nm (BVU_0767)	DTNB thioesterase assay, 412 nm (BT_3942)
CCCC(=O)SCCNC(=O)CCNC(=O)[C@H](O)C(C)(C)COP(=O)(O)OP(=O)(O)OC[C@H]1O[C@@H](n2cnc3c(N)ncnc32)[C@H](O)[C@@H]1OP(=O)(O)O [butyryl-CoA]	different substrate specificity for hydrolysis of short chain lengths of Acyl-CoAs and propionyl- and butyryl-CoA	–
CCC(=O)SCCNC(=O)CCNC(=O)[C@H](O)C(C)(C)COP(=O)(O)OP(=O)(O)OC[C@H]1O[C@@H](n2cnc3c(N)ncnc32)[C@H](O)[C@@H]1OP(=O)(O)O [propionyl-CoA]	different substrate specificity for hydrolysis of short chain lengths of Acyl-CoAs and propionyl- and butyryl-CoA	different substrate specificity for hydrolysis of short chain lengths of Acyl-CoAs and propionyl- and butyryl-CoA
